Assay results published in patent publication US20110269680A1 (PANACEA BIOTEC LIMITED, priority 2008, published 2011).
Numbered stars: 1 amine (or outer) side, 2 acyl side, 3 side chain; on linkers, the order of the positions; unused ones are H or OH. Square brackets hold non-standard residues; d marks the D form. Ends that are not written are not given here. Peptide text beside a SMILES is read from it. 2Furoyl(5-aminomethyl) = O=C(c1ccc(CN[*:1])o1)[*:2]; Aib = CC(C)(N)C(=O)O

Key:
[1] = target: T1, GLP-1R (Homo sapiens, UniProt P43220); test: In vitro receptor functional assay (cAMP) in CHO/GLP-1R cells; type: cell-based; conditions: intracellular cAMP, 30 min with 1 mM IBMX
T1 construct: expressed in transfected cells; host or cells: CHO/GLP-1R cells
T1 sequence (P43220 24-463, species assumed): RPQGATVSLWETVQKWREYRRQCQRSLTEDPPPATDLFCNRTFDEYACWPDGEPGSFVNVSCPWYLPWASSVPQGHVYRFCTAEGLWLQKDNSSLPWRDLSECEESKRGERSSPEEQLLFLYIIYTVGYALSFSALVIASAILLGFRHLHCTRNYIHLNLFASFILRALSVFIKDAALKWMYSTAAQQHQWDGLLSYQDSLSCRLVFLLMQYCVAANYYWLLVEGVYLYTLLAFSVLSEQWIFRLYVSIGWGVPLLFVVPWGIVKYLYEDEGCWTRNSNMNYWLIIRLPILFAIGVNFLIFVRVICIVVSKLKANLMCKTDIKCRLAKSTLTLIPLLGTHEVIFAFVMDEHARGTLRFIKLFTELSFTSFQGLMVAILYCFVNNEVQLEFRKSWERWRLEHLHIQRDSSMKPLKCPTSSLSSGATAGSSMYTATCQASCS
Text: cAMP is a ubiquitous cellular second messenger that is critical component of a signal transduction pathway linking membrane receptors and their ligands to the activation of internal cellular enzymatic activity and gene expression. cAMP is synthesized from ATP by membrane bound adenylate cyclase in a very regulated manner. In its simpler form, binding of a ligand, such as hormone or drug, to its specific G protein coupled receptor can either stimulate or inhibit adenylate cyclase depending on the GPCR being activated. […] Therefore the relative concentration of cAMP serves as a means to monitor the activity of GPCRs at the cell surface.
CHO/GLP-1R Cell Culture—CHO/GLP-1R Cells were maintained in Ham's F-12 medium containing 10% Fetal bovine serum and 1% penicillin-streptomycin antibiotic solution at 37° C. in a 5% CO2 incubator.
Cells were washed twice with PBS (pH-7.2) and incubated with 100 μl Ham's F-12 serum free medium supplemented with 0.1% BSA for 2 hr at 37° C. in 5% CO2 incubator. Cells were then incubated in 100 μl Ham's F-12 serum free medium supplemented with 0.1% BSA with 1 mM IBMX in the presence as well as absence of the peptides as per present invention in different concentration (10 nM, 1 nM, 100 pM & 10 pM). The reaction was stopped 30 min later by washing the intact cells three times with ice cold PBS (pH-7.2). The intracellular cAMP was extracted by incubating the cells in 100 μl 0.1N HCl at room temperature for 20 minutes. Mixture was dissociated by pipetting up and down until the suspension became homogenous, transferred to centrifuge tube and centrifuged at 800 rpm for 10 minutes.
Dissolved 5 pNPP tablets in 25 ml DEA buffer. Wells were emptied and washed five times with wash buffer and added 200 μl pNPP solution to each well, plate was covered and allowed to develop in dark for 90 minutes.

[2] = target: T2, DPP-IV (Homo sapiens, UniProt P27487); test: DPP-IV resistant assay; type: in vitro ADME; conditions: for half-life at 20 μM: pH 8
T2 construct: purchased Sigma-Aldrich
T2 sequence (P27487 whole entry, species assumed): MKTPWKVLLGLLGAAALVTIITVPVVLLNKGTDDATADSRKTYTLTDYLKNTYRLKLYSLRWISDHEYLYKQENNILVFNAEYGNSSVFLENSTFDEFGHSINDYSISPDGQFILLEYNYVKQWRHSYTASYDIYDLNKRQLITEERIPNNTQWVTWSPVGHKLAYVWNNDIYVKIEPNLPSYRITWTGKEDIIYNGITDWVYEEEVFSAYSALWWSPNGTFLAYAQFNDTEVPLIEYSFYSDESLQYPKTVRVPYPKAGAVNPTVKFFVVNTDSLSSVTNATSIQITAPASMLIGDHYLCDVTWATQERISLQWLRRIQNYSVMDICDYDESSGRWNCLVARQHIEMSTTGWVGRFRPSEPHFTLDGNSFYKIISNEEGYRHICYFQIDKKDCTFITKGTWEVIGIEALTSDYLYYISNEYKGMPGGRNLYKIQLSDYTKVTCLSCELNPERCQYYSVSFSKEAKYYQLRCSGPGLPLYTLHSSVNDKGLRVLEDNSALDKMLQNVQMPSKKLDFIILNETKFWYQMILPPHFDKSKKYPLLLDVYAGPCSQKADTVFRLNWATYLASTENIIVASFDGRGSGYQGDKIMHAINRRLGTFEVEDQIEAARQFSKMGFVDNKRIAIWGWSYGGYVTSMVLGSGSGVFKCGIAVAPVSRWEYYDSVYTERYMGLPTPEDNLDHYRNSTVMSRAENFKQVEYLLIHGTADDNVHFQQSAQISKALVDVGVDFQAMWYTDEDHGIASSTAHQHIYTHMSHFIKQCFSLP
Experimental: 20 μM of peptides of the present invention (Sequence IDs—01, 02, 03, 04, 05, 06, 11, 12 and 13) were incubated with 60 mU/2 ml of DPP-IV (Sigma-Aldrich) enzyme at room temperature (22-24° C.) in 20 mM Tris HCl buffer, pH 8.0. The aliquots were analyzed for the amount of undegraded peptide concentration at different time intervals by RP-HPLC. The peak area integration was used to determine the amount of undegraded peptide (U.S. Pat. No. 7,067,488). T1/2 of each peptide was determined from the graph plotted between peak area of undegraded peptide vs. time. The peak area of DPP-IV untreated peptide in above mentioned buffer condition of same concentration was considered as time zero. […]

[3] = test system: C57BL/6 mice; test: Oral Glucose Tolerance Test (OGTT) in C57BL/6 mice, 2 μg per mouse; type: in vivo; conditions: 2 μg/mouse intraperitoneally, FIG. 4
Experimental: A volume of 100 μl of peptides of present invention (2 μg per mouse) were injected intraperitoneally into 6 hr fasted C57BL/6 normal male/female mice (4-6 wk). After 6 h of fasting, fasting glucose level was be assessed by using a Glucometer (Accu-Chek) from tail vein or the retro-orbital sinus. Glucose was given orally at the ratio 1 mg/g body wt. per mouse 5 min after the administration of peptides. Blood glucose levels were assessed at different time points i.e. at 0, 15, 30, 60, 120 and 180 min.
The graph was plotted for blood glucose (mg/dl) level against time.
The saline solution was administered to the female mice as control negative.

[4] = target: T3, NEP 24.11 (Homo sapiens, UniProt P08473); test: NEP 24.11 resistant (degradation) assay; type: in vitro ADME; conditions: pH 7.4; for half-life at 20 μM: buffer; for metabolised at 54 h, 20 μM: isolated enzyme neprilysin
T3 construct: purchased Calbiochem
T3 sequence (P08473 whole entry): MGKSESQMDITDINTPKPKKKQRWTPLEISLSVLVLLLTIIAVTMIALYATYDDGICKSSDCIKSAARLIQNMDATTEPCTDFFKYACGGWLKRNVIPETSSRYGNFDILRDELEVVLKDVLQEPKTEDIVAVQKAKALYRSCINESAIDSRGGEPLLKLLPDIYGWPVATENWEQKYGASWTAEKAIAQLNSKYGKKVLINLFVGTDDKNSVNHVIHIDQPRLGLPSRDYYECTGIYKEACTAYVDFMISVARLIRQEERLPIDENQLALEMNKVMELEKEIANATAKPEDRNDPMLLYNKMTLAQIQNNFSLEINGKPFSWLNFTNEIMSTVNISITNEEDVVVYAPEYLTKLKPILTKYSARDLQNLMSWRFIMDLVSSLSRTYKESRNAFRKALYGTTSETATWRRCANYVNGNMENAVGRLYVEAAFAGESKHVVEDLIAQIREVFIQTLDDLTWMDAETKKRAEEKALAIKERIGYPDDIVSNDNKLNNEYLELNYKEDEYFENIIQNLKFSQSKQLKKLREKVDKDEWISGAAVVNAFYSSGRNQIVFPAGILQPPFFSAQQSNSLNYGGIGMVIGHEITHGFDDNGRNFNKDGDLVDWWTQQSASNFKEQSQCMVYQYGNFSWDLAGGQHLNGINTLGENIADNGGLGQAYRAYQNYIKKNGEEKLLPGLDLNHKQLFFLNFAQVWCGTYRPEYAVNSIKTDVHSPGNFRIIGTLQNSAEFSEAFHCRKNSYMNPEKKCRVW
Experimental: The aliquots were analyzed for the amount of undegraded peptide concentration at different time intervals using RP-HPLC by peak area integration. T1/2 of each peptide was determined from the graph plotted between peak area of undegraded peptide vs time.

Compound | EC50 [1] [nM] | half-life at 20 μM [2] [h] | Percentage degradation in hrs [2] [%] | half-life at 20 μM [4] [h] | metabolised at 54 h, 20 μM [4] [%] | percent reduction in blood glucose (AUC0-60) compared with GLP-1(7-37) parent [3]
CC[C@H](C)[C@H](NC(=O)[C@H](Cc1ccccc1)NC(=O)[C@H](CCC(=O)O)NC(=O)[C@H](CCCCN)NC(=O)[C@H](C)NC(=O)[C@H](C)NC(=O)[C@H](CCC(N)=O)NC(=O)CNC(=O)[C@H](CCC(=O)O)NC(=O)[C@H](CC(C)C)NC(=O)[C@H](Cc1ccc(O)cc1)NC(=O)[C@H](CO)NC(=O)[C@H](CO)NC(=O)[C@@H](NC(=O)[C@H](CC(=O)O)NC(=O)[C@H](CO)NC(=O)[C@@H](NC(=O)[C@H](Cc1ccccc1)NC(=O)[C@@H](NC(=O)CNC(=O)c1ccc(CNC(=O)[C@@H](N)Cc2c[nH]cn2)o1)[C@@H](C)O)[C@@H](C)O)C(C)C)C(=O)N[C@@H](C)C(=O)N[C@@H](Cc1c[nH]c2ccccc12)C(=O)N[C@@H](CC(C)C)C(=O)N[C@H](C(=O)N[C@@H](CCCCN)C(=O)NCC(=O)N[C@@H](CCCNC(=N)N)C(=O)NCC(N)=O)C(C)C [Seq ID No. 02] | 0.043 | > 24 | 43.62 |  |  | 
Seq ID No 01 (H[2Furoyl(5-aminomethyl)]EGTFTSDVSSYLEGQAAKEFIAWLVKGRG-NH2) |  |  |  |  |  | comparable activity to the GLP-1(7-37) parent peptide
Seq ID No.05 (HGEGTFTSDXSSYLEGQAAKEFIXWLVKGR) |  |  |  |  |  | better activity than GLP-1(7-37) parent peptide

Continued, in another order:

EC50 [1] [nM] | half-life at 20 μM [2] [h] | Percentage degradation in hrs [2] [%] | half-life at 20 μM [4] [h] | metabolised at 54 h, 20 μM [4] [%] | Compound | percent reduction in blood glucose (AUC0-60) compared with GLP-1(7-37) parent [3]
0.838 | 4.33 |  |  |  | CC[C@H](C)[C@H](NC(=O)[C@H](Cc1ccccc1)NC(=O)[C@H](CCC(=O)O)NC(=O)[C@H](CCCCN)NC(=O)[C@H](C)NC(=O)[C@H](C)NC(=O)[C@H](CCC(N)=O)NC(=O)CNC(=O)[C@H](CCC(=O)O)NC(=O)[C@H](CC(C)C)NC(=O)[C@H](Cc1ccc(O)cc1)NC(=O)[C@H](CO)NC(=O)[C@H](CO)NC(=O)[C@@H](NC(=O)[C@H](CC(=O)O)NC(=O)[C@H](CO)NC(=O)[C@@H](NC(=O)[C@H](Cc1ccccc1)NC(=O)[C@@H](NC(=O)CNC(=O)[C@H](CCC(=O)O)NC(=O)[C@H]1O[C@H](OC)[C@H](NC(=O)[C@@H](N)Cc2c[nH]cn2)[C@@H](O)[C@@H]1O)[C@@H](C)O)[C@@H](C)O)C(C)C)C(=O)N[C@@H](C)C(=O)N[C@@H](Cc1c[nH]c2ccccc12)C(=O)N[C@@H](CC(C)C)C(=O)N[C@H](C(=O)N[C@@H](CCCCN)C(=O)NCC(=O)N[C@@H](CCCNC(=N)N)C(N)=O)C(C)C [Seq ID No. 06] | 
0.061 | > 72 | 13 | 29 | 96.8 | CC[C@H](C)[C@H](NC(=O)[C@H](Cc1ccccc1)NC(=O)[C@H](CCC(=O)O)NC(=O)[C@H](CCCCN)NC(=O)[C@H](C)NC(=O)[C@H](C)NC(=O)[C@H](CCC(N)=O)NC(=O)CNC(=O)[C@H](CCC(=O)O)NC(=O)[C@H](CC(C)C)NC(=O)[C@H](Cc1ccc(O)cc1)NC(=O)[C@H](CO)NC(=O)[C@H](CO)NC(=O)[C@@H](NC(=O)[C@H](CC(=O)O)NC(=O)[C@H](CO)NC(=O)[C@@H](NC(=O)[C@H](Cc1ccccc1)NC(=O)[C@@H](NC(=O)CNC(=O)[C@H](CCC(=O)O)NC(=O)c1ccc(CNC(=O)[C@@H](N)Cc2c[nH]cn2)o1)[C@@H](C)O)[C@@H](C)O)C(C)C)C(=O)N[C@@H](C)C(=O)N[C@@H](Cc1c[nH]c2ccccc12)C(=O)N[C@@H](CC(C)C)C(=O)N[C@H](C(=O)N[C@@H](CCCCN)C(=O)NCC(=O)N[C@@H](CCCNC(=N)N)C(N)=O)C(C)C [Seq ID No. 03] | 
1 |  |  |  |  | CC[C@H](C)[C@H](NC(=O)[C@H](Cc1ccccc1)NC(=O)[C@H](CCC(=O)O)NC(=O)[C@H](CCCCN)NC(=O)[C@H](C)NC(=O)[C@H](C)NC(=O)[C@H](CCC(N)=O)NC(=O)CNC(=O)[C@H](CCC(=O)O)NC(=O)[C@H](CC(C)C)NC(=O)[C@H](Cc1ccc(O)cc1)NC(=O)[C@H](CO)NC(=O)[C@H](CO)NC(=O)C(C)(C)NC(=O)[C@H](CC(=O)O)NC(=O)[C@H](CO)NC(=O)[C@@H](NC(=O)[C@H](Cc1ccccc1)NC(=O)[C@@H](NC(=O)CNC(=O)[C@H](CCC(=O)O)NC(=O)c1ccc(CNC(=O)[C@@H](N)Cc2c[nH]cn2)o1)[C@@H](C)O)[C@@H](C)O)C(=O)NC(C)(C)C(=O)N[C@@H](Cc1c[nH]c2ccccc12)C(=O)N[C@@H](CC(C)C)C(=O)N[C@H](C(=O)N[C@@H](CCCCN)C(=O)NCC(=O)N[C@@H](CCCNC(=N)N)C(=O)NCC(N)=O)C(C)C [Seq ID No. 09] (H-H[2Furoyl(5-aminomethyl)]EGTFTSD[Aib]SSYLEGQAAKEFI[Aib]WLVKGRG-NH2) | 
0.083 | 24.7 |  | 49 | 59.4 | CC[C@H](C)[C@H](NC(=O)[C@H](Cc1ccccc1)NC(=O)[C@H](CCC(=O)O)NC(=O)[C@H](CCCCN)NC(=O)[C@H](C)NC(=O)[C@H](C)NC(=O)[C@H](CCC(N)=O)NC(=O)CNC(=O)[C@H](CCC(=O)O)NC(=O)[C@H](CC(C)C)NC(=O)[C@H](Cc1ccc(O)cc1)NC(=O)[C@H](CO)NC(=O)[C@H](CO)NC(=O)C(C)(C)NC(=O)[C@H](CC(=O)O)NC(=O)[C@H](CO)NC(=O)[C@@H](NC(=O)[C@H](Cc1ccccc1)NC(=O)[C@@H](NC(=O)CNC(=O)[C@H](CCC(=O)O)NC(=O)CNC(=O)[C@@H](N)Cc1c[nH]cn1)[C@@H](C)O)[C@@H](C)O)C(=O)NC(C)(C)C(=O)N[C@@H](Cc1c[nH]c2ccccc12)C(=O)N[C@@H](CC(C)C)C(=O)N[C@H](C(=O)N[C@@H](CCCCN)C(=O)NCC(=O)N[C@@H](CCCNC(=N)N)C(N)=O)C(C)C [Seq ID No. 05] (H-HGEGTFTSD[Aib]SSYLEGQAAKEFI[Aib]WLVKGR-NH2) | 
